Measurements reported in patent US20260193264A1, “BENZOYPARAZINE PYRAZINES AND THEIR USES” (FOGHORN THERAPEUTICS INC., priority 2022, published 2026).

Assays:
[1] = target: T1, HiBit-BRG1 fusion protein in stable HeLa cell line expressing HiBit-BRG1 and LgBit (Homo sapiens, UniProt P51532); assay: HiBiT-BRG1 cell-based degradation assay (Nano-Glo HiBiT, 24 h); conditions: HeLa HiBit-BRG1/LgBit cells; for DC50: read-out: BRMG1 HiBit Degradation IC50; for Dmax: top dose 30 μM, read-out: BRG1 HiBit Degradation Maximum (%)
T1 construct: expressed in transfected cells
Outline: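 Degradation calculated from NanoBiT luminescence relative to DMSO-treated cells (high) and cells given 2 μM known BRM/BRG1 degrader (low). HeLa cells stably expressing HiBiT-BRG1 plus LgBiT were exposed to compound for 24 h before lytic HiBiT detection.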

[2] = target: T2, HiBiT-BRM fusion protein in stable HeLa cell line (Homo sapiens, UniProt P51531); assay: HiBiT-BRM cell-based degradation assay (Nano-Glo HiBiT Lytic Detection, 24 h); set-up: DC50: scale not given here; conditions: HeLa HiBiT-BRM cells; for DC50: read-out: BRM HiBit Degradation IC50; for BRM HiBit Degradation Maximum (%): top dose 30 μM
T2 construct: expressed in transfected cells
Outline: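 HiBiT-tagged BRM levels in a stable HeLa line are measured after one day of compound treatment (up to 30 μM final, duplicate 10-point curves) by adding LgBiT lytic reagent and reading bioluminescence; values are expressed relative to vehicle and a 2 μM degrader control.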

T2 sequence (P51531 whole entry, the tested form may be a part): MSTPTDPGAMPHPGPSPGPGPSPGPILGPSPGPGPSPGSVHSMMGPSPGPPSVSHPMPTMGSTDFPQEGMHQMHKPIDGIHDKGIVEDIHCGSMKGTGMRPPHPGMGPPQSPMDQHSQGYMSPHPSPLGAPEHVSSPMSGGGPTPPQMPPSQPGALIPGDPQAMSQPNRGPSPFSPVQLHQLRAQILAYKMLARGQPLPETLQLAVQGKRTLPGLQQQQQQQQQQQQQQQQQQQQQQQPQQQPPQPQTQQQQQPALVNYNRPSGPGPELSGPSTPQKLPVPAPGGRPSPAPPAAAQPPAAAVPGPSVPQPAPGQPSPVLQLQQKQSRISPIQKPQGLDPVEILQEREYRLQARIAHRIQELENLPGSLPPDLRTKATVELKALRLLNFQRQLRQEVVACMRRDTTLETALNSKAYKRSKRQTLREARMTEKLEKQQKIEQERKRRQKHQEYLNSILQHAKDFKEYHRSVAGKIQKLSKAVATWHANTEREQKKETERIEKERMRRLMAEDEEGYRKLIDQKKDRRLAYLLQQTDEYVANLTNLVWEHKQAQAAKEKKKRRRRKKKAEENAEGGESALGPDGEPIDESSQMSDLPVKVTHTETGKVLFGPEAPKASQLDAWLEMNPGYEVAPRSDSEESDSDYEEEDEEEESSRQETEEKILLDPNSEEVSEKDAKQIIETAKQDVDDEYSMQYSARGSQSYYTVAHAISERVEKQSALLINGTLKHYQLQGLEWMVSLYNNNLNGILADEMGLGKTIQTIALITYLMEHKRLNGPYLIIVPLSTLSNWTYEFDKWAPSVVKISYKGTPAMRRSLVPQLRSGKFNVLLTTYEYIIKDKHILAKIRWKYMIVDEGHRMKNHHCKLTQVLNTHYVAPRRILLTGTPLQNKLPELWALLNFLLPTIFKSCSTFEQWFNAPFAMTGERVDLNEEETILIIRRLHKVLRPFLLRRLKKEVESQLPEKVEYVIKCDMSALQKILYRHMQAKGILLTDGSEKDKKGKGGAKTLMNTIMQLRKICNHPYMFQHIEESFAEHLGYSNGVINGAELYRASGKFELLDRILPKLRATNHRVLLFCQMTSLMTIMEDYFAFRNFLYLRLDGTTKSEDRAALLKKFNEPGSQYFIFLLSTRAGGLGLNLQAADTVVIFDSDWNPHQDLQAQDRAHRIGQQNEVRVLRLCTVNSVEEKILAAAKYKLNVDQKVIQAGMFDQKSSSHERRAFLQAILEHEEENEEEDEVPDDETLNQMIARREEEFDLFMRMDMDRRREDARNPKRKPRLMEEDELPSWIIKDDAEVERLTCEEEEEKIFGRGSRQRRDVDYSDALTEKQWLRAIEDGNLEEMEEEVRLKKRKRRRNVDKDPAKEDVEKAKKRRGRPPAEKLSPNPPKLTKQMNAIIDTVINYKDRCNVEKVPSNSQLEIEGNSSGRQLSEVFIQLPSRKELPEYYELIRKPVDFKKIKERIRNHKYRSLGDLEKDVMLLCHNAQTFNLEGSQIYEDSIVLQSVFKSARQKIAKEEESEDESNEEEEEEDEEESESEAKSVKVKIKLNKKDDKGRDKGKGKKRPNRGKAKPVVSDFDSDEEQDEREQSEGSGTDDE
T1 sequence (P51532 whole entry, the tested form may be a part): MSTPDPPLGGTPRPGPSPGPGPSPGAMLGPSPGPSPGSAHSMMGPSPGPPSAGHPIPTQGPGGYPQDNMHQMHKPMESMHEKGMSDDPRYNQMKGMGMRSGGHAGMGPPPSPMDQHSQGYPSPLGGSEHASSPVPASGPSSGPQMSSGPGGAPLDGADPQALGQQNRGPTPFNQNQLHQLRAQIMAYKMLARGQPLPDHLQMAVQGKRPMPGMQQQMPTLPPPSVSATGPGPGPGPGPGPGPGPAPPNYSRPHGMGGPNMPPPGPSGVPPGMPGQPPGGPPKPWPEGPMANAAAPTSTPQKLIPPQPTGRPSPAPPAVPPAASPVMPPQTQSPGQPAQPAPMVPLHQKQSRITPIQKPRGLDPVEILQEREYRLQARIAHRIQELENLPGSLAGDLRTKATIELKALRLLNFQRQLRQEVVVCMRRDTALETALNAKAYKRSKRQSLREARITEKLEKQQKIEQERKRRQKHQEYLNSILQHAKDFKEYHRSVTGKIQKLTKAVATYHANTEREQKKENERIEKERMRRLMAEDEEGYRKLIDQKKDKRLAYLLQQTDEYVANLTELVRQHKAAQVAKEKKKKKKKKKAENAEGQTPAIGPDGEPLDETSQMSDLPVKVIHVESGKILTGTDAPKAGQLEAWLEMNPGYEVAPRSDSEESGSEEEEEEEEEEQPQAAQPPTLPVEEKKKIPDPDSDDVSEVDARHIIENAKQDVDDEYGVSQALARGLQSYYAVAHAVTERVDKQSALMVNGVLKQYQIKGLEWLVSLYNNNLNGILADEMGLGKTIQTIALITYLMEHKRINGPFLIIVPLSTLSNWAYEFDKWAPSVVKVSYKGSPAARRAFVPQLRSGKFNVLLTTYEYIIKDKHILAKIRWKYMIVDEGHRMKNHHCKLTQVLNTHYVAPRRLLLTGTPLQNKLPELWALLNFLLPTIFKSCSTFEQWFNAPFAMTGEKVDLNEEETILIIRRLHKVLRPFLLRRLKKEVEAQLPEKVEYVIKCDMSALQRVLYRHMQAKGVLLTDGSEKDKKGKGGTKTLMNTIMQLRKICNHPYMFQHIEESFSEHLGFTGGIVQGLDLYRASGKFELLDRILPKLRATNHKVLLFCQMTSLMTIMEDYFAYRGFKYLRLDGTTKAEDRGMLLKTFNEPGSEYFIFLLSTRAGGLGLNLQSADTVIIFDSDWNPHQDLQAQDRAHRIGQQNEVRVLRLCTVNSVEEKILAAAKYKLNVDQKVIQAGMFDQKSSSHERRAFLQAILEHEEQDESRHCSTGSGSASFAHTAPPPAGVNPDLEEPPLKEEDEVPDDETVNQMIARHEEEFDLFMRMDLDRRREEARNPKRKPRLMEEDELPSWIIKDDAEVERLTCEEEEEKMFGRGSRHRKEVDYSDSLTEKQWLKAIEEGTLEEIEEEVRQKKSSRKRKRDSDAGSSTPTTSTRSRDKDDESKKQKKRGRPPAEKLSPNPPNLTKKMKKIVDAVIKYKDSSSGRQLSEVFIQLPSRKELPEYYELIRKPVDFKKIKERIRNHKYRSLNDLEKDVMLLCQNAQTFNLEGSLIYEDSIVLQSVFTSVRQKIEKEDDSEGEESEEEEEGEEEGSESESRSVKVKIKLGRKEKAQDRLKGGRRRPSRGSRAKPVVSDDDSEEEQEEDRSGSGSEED

Row | SMILES | DC50 [1] [nM] | Dmax [1] [%] | DC50 [2] [nM] | BRM HiBit Degradation Maximum (%) [2]
1 | Cc1ncsc1-c1ccc([C@H](C)NC(=O)[C@@H]2C[C@@H](O)CN2C(=O)[C@H](C(C)C)n2cc(C3CC4(CC(c5ccc6cc(-c7ccccc7O)nnc6c5)C4)C3)nn2)cc1 (stereo partly drawn) [Compound 208, (2S,4R)-4-hydroxy-1-[(2S)-2-(4-{6-[3-(2-hydroxyphenyl)cinnolin-7-yl]spiro[3.3]heptan-2-yl}-1,2,3-triazol-1-yl)-3-methylbutanoyl]-N-[(1S)-1-[4-(4-methyl-1,3-thiazol-5-yl)phenyl]ethyl]pyrrolidine-2-carboxamide] | > 10 | > 75 | < 10 | A (“A” indicates maximum degradation ≥75%)
2 | CNC(=O)[C@@H]1C[C@@H](O)CN1C(=O)[C@@H](c1cc(N2CC3(C2)CN(c2cc4nnc(-c5ccccc5O)cc4cc2OC)C3)no1)C(C)C [Compound 209, (2S,4R)-4-hydroxy-1-((R)-2-(3-(6-(3-(2-hydroxyphenyl)-6-methoxycinnolin-7-yl)-2,6-diazaspiro[3.3]heptan-2-yl)isoxazol-5-yl)-3-methylbutanoyl)-N-methylpyrrolidine-2-carboxamide] |  | < 50 | < 10 | A (“A” indicates maximum degradation ≥75%)
3 | Cc1ncsc1-c1ccc([C@H](C)NC(=O)[C@@H]2C[C@@H](O)CN2C(=O)[C@H](C2CCC2)n2cc(N3CC4(CN(c5ccc6cc(-c7ccccc7O)nnc6c5)C4)C3)nn2)cc1 [Compound 211, (2S,4R)-1-((S)-2-cyclobutyl-2-(4-(6-(3-(2-hydroxyphenyl)cinnolin-7-yl)-2,6-diazaspiro[3.3]heptan-2-yl)-1H-1,2,3-triazol-1-yl)acetyl)-4-hydroxy-N-((S)-1-(4-(4-methylthiazol-5-yl)phenyl)ethyl)pyrrolidine-2-carboxamide] |  | < 50 | < 10 | A (“A” indicates maximum degradation ≥75%)
4 | Cc1ncsc1-c1ccc([C@H](C)NC(=O)[C@@H]2C[C@@H](O)CN2C(=O)[C@H](C(C)C)n2cc(N3CC4(CC(c5ccc6cc(-c7ccccc7O)nnc6c5)C4)C3)nn2)cc1 [Compound 212, (2S,4R)-4-hydroxy-1-((S)-2-(4-(6-(3-(2-hydroxyphenyl)cinnolin-7-yl)-2-azaspiro[3.3]heptan-2-yl)-1H-1,2,3-triazol-1-yl)-3-methylbutanoyl)-N-((S)-1-(4-(4-methylthiazol-5-yl)phenyl)ethyl)pyrrolidine-2-carboxamide] | > 10 | > 75 | < 10 | A (“A” indicates maximum degradation ≥75%)
5 | Cc1ncsc1-c1ccc([C@H](C)NC(=O)[C@@H]2C[C@@H](O)CN2C(=O)C(C(C)C)n2cc(N3C[C@H]4CN(c5ccc6cc(-c7ccccc7O)nnc6c5)C[C@H]4C3)nn2)cc1 (stereo partly drawn) [Compound 213, (2S,4R)-4-hydroxy-1-(2-(4-((3aR,6aS)-5-(3-(2-hydroxyphenyl)cinnolin-7-yl)hexahydropyrrolo[3,4-c]pyrrol-2(1H)-yl)-1H-1,2,3-triazol-1-yl)-3-methylbutanoyl)-N-((S)-1-(4-(4-methylthiazol-5-yl)phenyl)ethyl)pyrrolidine-2-carboxamide] |  | < 50 | < 10 | A (“A” indicates maximum degradation ≥75%)
6 | Cc1ncsc1-c1ccc([C@H](C)NC(=O)[C@@H]2C[C@@H](O)CN2C(=O)[C@H](C(C)C)n2cc(N3CCN4CCN(c5ccc6nnc(-c7ccccc7O)cc6c5)CC4C3)nn2)cc1 (stereo partly drawn) [Compound 214] |  | > 50 | < 10 | A (“A” indicates maximum degradation ≥75%)
7 | CC(C)[C@@H](C(=O)N1C[C@H](O)C[C@H]1C(=O)N[C@@H](C)c1ccc(F)cc1)c1cc(N2CC3(C2)CN(c2cc4nnc(-c5ccccc5O)cc4cc2C#N)C3)no1 [Compound 217, (2S,4R)-1-((R)-2-(3-(6-(6-cyano-3-(2-hydroxyphenyl)cinnolin-7-yl)-2,6-diazaspiro[3.3]heptan-2-yl)isoxazol-5-yl)-3-methylbutanoyl)-N-((S)-1-(4-fluorophenyl)ethyl)-4-hydroxypyrrolidine-2-carboxamide] |  | < 50 | < 10 | A (“A” indicates maximum degradation ≥75%)

Second part, led by results:

Row | DC50 [1] [nM] | Dmax [1] [%] | DC50 [2] [nM] | SMILES | BRM HiBit Degradation Maximum (%) [2]
8 | < 10 | > 75 | < 10 | Cc1ncsc1-c1ccc([C@H](C)NC(=O)[C@@H]2C[C@@H](O)CN2C(=O)[C@@H](c2cc(N3CC4(C3)CN(c3cc5nnc(-c6ccccc6O)cc5cc3N(C)C)C4)no2)C(C)C)cc1 [Compound 207, (2S,4R)-1-((R)-2-(3-(6-(6-(dimethylamino)-3-(2-hydroxyphenyl)cinnolin-7-yl)-2,6-diazaspiro[3.3]heptan-2-yl)isoxazol-5-yl)-3-methylbutanoyl)-4-hydroxy-N-((S)-1-(4-(4-methylthiazol-5-yl)phenyl)ethyl)pyrrolidine-2-carboxamide] | A (“A” indicates maximum degradation ≥75%)
9 | > 10 | > 75 | < 10 | COc1cc2cc(-c3ccccc3O)nnc2cc1CN1CC[C@@H](N2CCN(c3cc([C@H](C(=O)N4C[C@H](O)C[C@H]4C(=O)N[C@@H](C)c4ccc(-c5scnc5C)cc4)C(C)C)on3)CC2)C(F)(F)C1 [Compound 218, (2S,4R)-1-[(2R)-2-(3-{4-[(4R)-3,3-difluoro-1-{[3-(2-hydroxyphenyl)-6-methoxycinnolin-7-yl]methyl}piperidin-4-yl]piperazin-1-yl}-1,2-oxazol-5-yl)-3-methylbutanoyl]-4-hydroxy-N-[(1S)-1-[4-(4-methyl-1,3-thiazol-5-yl)phenyl]ethyl]pyrrolidine-2-carboxamide] | A (“A” indicates maximum degradation ≥75%)
10 | > 10 | > 75 | < 10 | COc1cc2cc(-c3ccccc3O)nnc2cc1CN1CC[C@H](N2CCN(c3cc([C@H](C(=O)N4C[C@H](O)C[C@H]4C(=O)N[C@@H](C)c4ccc(-c5scnc5C)cc4)C(C)C)on3)CC2)C(F)(F)C1 [Compound 219, (2S,4R)-1-((R)-2-(3-(4-((S)-3,3-difluoro-1-((3-(2-hydroxyphenyl)-6-methoxycinnolin-7-yl)methyl)piperidin-4-yl)piperazin-1-yl)isoxazol-5-yl)-3-methylbutanoyl)-4-hydroxy-N-((S)-1-(4-(4-methylthiazol-5-yl)phenyl)ethyl)pyrrolidine-2-carboxamide] | A (“A” indicates maximum degradation ≥75%)
11 | > 10 | > 75 | < 10 | Cc1ncsc1-c1ccc([C@H](C)NC(=O)[C@@H]2C[C@@H](O)CN2C(=O)[C@@H](c2cc(N3CC4(CC(c5cc6nnc(-c7ccccc7O)cc6cc5Cl)C4)C3)no2)C(C)C)cc1 [Compound 220, (2S,4R)-1-((R)-2-(3-(6-(6-chloro-3-(2-hydroxyphenyl)cinnolin-7-yl)-2-azaspiro[3.3]heptan-2-yl)isoxazol-5-yl)-3-methylbutanoyl)-4-hydroxy-N-((S)-1-(4-(4-methylthiazol-5-yl)phenyl)ethyl)pyrrolidine-2-carboxamide] | A (“A” indicates maximum degradation ≥75%)
